Data: patent US11612583B2, “Disease modifying methods for treating neurodegenerative diseases using nootropic agents” (priority 2018, dated 2023)

Experiments:
Type in all cases: cell-based, mouse
[1] = system: primary cortical neurons treated with rotenone; assay: Oxygen consumption rates (XF24e Extracellular Flux Analyzer) in rotenone-treated primary cortical neurons; conditions: after rotenone 65 nM 24 hours, 24 hrs
Description: Rotenone (1.26 mM stock, Sigma, Cat #R8875) was freshly prepared in water prior to each use. Stocks of rotenone were maintained in the dark at −20° C. for up to 6 months. Rotenone was used at 65 μM for neuroblastoma cells and at 65 nM for primary cortical neurons for 4-6 hours to induce oxidative and autophagic stress.
Forskolin (Coleus forskohlii, >98% HPLC, Sigma Aldrich) was prepared in DMSO as 5 mg/ml stocks (stable for up to 6 months if kept in the dark and stored in −20° C. until ready to use). On the day of the experiment, the forskolin aliquot was thawed and cells were treated once with forskolin at a concentration of 1 to up to 10 μM of forskolin in complete media for treating primary cortical neurons or for intraperitoneal administration of PINK1 knockout mice or PINK1 knockout rats.
Rotenone-treated primary neurons were then exposed to 250 μM dibutyryl cyclic AMP (dbt-cAMP) or with the parental or water-soluble form (NKH477) of Forskolin (6.5 μM-8.5 μM, 24 hrs). The basal oxygen consumption rates (OCRs), a proxy for mitochondrial function, were analyzed by using an XF24^e Extracellular Flux Analyzer (Agilent Technologies). The maximal oxygen consumption rates (OCRs), a proxy for maximal buffering capacity of mitochondrial function, were also analyzed by using an XF24^e Extracellular Flux Analyzer in primary cortical neurons treated with 1 μM FCCP, an ionophore that acts as a mitochondrial uncoupler.

[2] = system: primary cortical neurons treated with rotenone; assay: Extracellular acidification rates (ECARs), proxy for glycolysis, in rotenone-treated primary cortical neurons; conditions: after rotenone 65 nM 24 hours, 6.5 μM-8.5 μM, FIG. 3
Description: Rotenone (1.26 mM stock, Sigma, Cat #R8875) was freshly prepared in water prior to each use. Stocks of rotenone were maintained in the dark at −20° C. for up to 6 months. […]
The extracellular acidification rates (ECARs), a proxy for glycolysis, were also assessed by using an XF24^e Extracellular Flux Analyzer in primary neurons.

[3] = system: primary cortical neurons treated with rotenone; assay: Image-based analysis of mitochondrial content in dendrites (MAP2B/TOM20 immunostaining); conditions: after rotenone 65 nM; Forskolin/NKH477 6.5 μM-8.5 μM or 250 μM dbt-cAMP; FIG. 4
Text: The rotenone-treated neurons were also studied by image-based analyses of mitochondrial content in dendrites from primary cortical neurons immunostained for dendrites (MAP2B) and for mitochondria (TOM20).

[4] = system: primary cortical neurons treated with rotenone; assay: Dendrite length analysis (MAP2B immunostaining); conditions: after rotenone 65 nM; Forskolin/NKH477 6.5 μM-8.5 μM or 250 μM dbt-cAMP; FIG. 5
primary cortical neurons = assay: Rotenone toxicity in primary cortical neurons; conditions: 24 hours

| SMILES | spare respiratory capacity (Maximal OCRs-Baseline OCRs) ([1]; 6.5 μM-8.5 μM, 1 μM FCCP, FIG. 2) | baseline mitochondrial respiration (basal OCRs) ([1]; Forskolin or NKH477 6.5 μM-8.5 μM, FIG. 1) | glycolysis (baseline ECARs) [2] | mitochondrial content in dendrites (% of dendrites occupied by mitochondria) [3] | dendrite arbors (total dendrite length per neuron) [4] | LD50 concentration (primary cortical neurons) [nM] |
| --- | --- | --- | --- | --- | --- | --- |
| C=C[C@@]1(C)CC(=O)[C@]2(O)[C@@]3(C)[C@@H](O)CCC(C)(C)[C@@H]3[C@H](OC(=O)CCN(C)C)[C@H](OC(C)=O)[C@@]2(C)O1.Cl [NKH477] | completely restored | partially or completely restored | completely restored normal glycolytic function | completely blocked | completely blocked |  |
| CCCC(=O)Nc1ncnc2c1ncn2[C@@H]1O[C@@H]2COP(=O)(O)O[C@H]2[C@H]1OC(=O)CCC [dbt-cAMP, dibutyryl cyclic AMP] |  |  |  | reversed the loss of mitochondria within dendrites | reversed the loss of dendrites |  |
| C=C(C)[C@H]1Cc2c(ccc3c2O[C@@H]2COc4cc(OC)c(OC)cc4[C@@H]2C3=O)O1 [rotenone, Rotenone] |  |  |  |  |  | 65 |
